Assay results taken from ChEMBL document CHEMBL2311245, “Hypoxia-selective O6-alkylguanine-DNA alkyltransferase inhibitors: design, synthesis, and evaluation of 6-(benzyloxy)-2-(aryldiazenyl)-9H-purines as prodrugs of O6-benzylguanine” (J Med Chem, 2013).
Active and inactive are the calls of the source. The rule behind the calls is not given here.

Key:
Format in all cases: cell-based
[1] = target: T1, Methylated-DNA--protein-cysteine methyltransferase (Homo sapiens) (UniProt P16455); test: Inhibition of AGT in human DU145 cells assessed as potentiation of laromustine-induced cytotoxicity under hypoxic condition up to 50 uM treated 4 hrs prior to laromustine treatment measured after 24 hrs by clonogenic assay; settings: DU-145
T1 sequence (whole entry): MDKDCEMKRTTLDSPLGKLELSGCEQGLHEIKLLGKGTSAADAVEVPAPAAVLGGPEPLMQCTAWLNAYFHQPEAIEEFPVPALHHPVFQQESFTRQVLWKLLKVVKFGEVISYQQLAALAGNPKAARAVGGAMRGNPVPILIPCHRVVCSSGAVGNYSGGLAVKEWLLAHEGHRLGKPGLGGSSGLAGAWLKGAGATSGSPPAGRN

[2] = target: T1, Methylated-DNA--protein-cysteine methyltransferase (Homo sapiens); test: Inhibition of AGT in human DU145 cells assessed as potentiation of laromustine-induced cytotoxicity under normoxic condition up to 50 uM treated 4 hrs prior to laromustine treatment measured after 24 hrs by clonogenic assay; settings: DU-145
[3] = tested on: DU-145; test: Prodrug activation in human DU145 cells assessed as O6-benzylguanine formation under normoxic condition at 50 uM over 3 hrs by HPLC analysis; settings: du-145, 3 h
[4] = target: T1, Methylated-DNA--protein-cysteine methyltransferase (Homo sapiens); test: Inhibition of AGT in human DU145 cells assessed as potentiation of laromustine-induced cytotoxicity under hypoxic condition up to 10 uM treated 4 hrs prior to laromustine treatment measured after 24 hrs by clonogenic assay; settings: DU-145
[5] = target: T1, Methylated-DNA--protein-cysteine methyltransferase (Homo sapiens); test: Inhibition of AGT in human DU145 cells assessed as potentiation of laromustine-induced cytotoxicity under hypoxic condition at >10 uM treated 4 hrs prior to laromustine treatment measured after 24 hrs by clonogenic assay; settings: DU-145
[6] = tested on: EMT6; test: Prodrug activation in mouse EMT6 cells assessed as O6-benzylguanine formation under normoxic condition at 50 uM after 3 hrs by HPLC analysis; settings: emt6, 3 h
[7] = target: T1, Methylated-DNA--protein-cysteine methyltransferase (Homo sapiens); test: Inhibition of AGT in human DU145 cells assessed as potentiation of laromustine-induced cytotoxicity under normoxic condition up to 10 uM treated 4 hrs prior to laromustine treatment measured after 24 hrs by clonogenic assay; settings: DU-145

Drug metabolism [3]	Drug metabolism [6]	SMILES	inhibition [1]	inhibition [2]	inhibition [4]	inhibition [5]	inhibition [7]
–	–	CN1CCN(c2ccc(/N=N/c3nc(OCc4ccccc4)c4nc[nH]c4n3)cc2)CC1	Active	inactive	–	–	–
Not Active	Not Active	CN(C)c1ccc(/N=N/c2nc(OCc3ccccc3)c3nc[nH]c3n2)cc1	–	–	Active	Active	inactive
